Assay results as given in patent US12171764B2, “Treatment of a disease of the gastrointestinal tract with a JAK or other kinase inhibitor” (BIORA THERAPEUTICS, INC., priority 2018, dated 2024).
Where two headings read alike, the source gives them in different places.

Tests used:
[1] = Example 10: tacrolimus blood/plasma pharmacokinetics, oral vs intra-cecal ingestible device delivery; assay type: in vivo, Yorkshire-Cross farm swine
Experimental: (§1) The primary objective of this study was to compare the tissue, plasma, rectal sample, and GI content pharmacokinetics of tacrolimus through oral versus intra-cecal ingestible device delivery in normal Yorkshire-Cross farm swine.
(§2) No further randomization procedure was employed.
Animals in Group 1 received an ingestible device containing 0.8 mL of vehicle solution (80% alcohol, 20% HCO-60). Animals in Group 2 received orally […] liquid formulation of tacrolimus at 4 mg/0.8 mL per animal (Prograf: 5 mg/mL). Animals in Group 3 received intra-cecally an ingestible device containing tacrolimus at 1 mg in 0.8 mL per ingestible device. Animals in Group 4 received intra-cecally an ingestible device containing tacrolimus at 2 mg in 0.8 mL per ingestible device. Animals in Group 5 received intra-cecally an ingestible device containing tacrolimus at 4 mg in 0.8 mL per ingestible device. To control for potential confounding effects of the surgery, all groups fast on Day −11 at least 24 hr before being subjected to anesthesia followed by surgical placements of a cecal port by a veterinary surgeon at Day −10. All animals were fasted for at least 12 hr prior to dosing on Day 1. Animals were dosed via either intra-cecal dosing (IC) or oral dosing (PO) at Day 1 (between 6-8 p.m.). All animals resumed feeding at approximately 4 hours after dose (11-12 p.m. after dosing).
Approximately 200˜400 mg of rectal content were collected, if available, with a fecal swab (Copan Diagnostics Nylon Flocked Dry Swabs, 502CS01). The fecal swab was pre-weighed and weighed after collection in the collection tube (Sterile Tube and Cap No Media, PFPM913S), and the sample weight was recorded. The fecal swab was broken via the breakpoint, and was stored in the collection tube, and immediately frozen at −70° C. […] Immediately following euthanasia, tissue was collected.
[…] Plasma, rectal content sample, tissue collection, GI content collection and related procedures/storage/shipments was the same as those employed in Group 1.
Group 3 animals were administered a single intra-cecal ingestible device containing tacrolimus at 1-mg/0.8 mL (0.02 mg/kg) (in the vehicle solution) on Day 1 by a veterinary surgeon. […] All samples were analyzed for tacrolimus.
Group 4 animals were administered a single intra-cecal ingestible device of tacrolimus at 2 mg/0.8 mL (0.04 mg/kg) (in sterile vehicle solution) on Day 1 by a veterinary surgeon. […] All samples were analyzed for tacrolimus.
Group 5 animals are administered a single intra-cecal ingestible device containing tacrolimus at 4 mg/0.8 mL (0.08 mg/kg) (in the vehicle solution) on Day 1 by a veterinary surgeon. […] All samples were analyzed for tacrolimus. […]

[2] = Example 10: tacrolimus in GI tissue, luminal content and rectal content, oral vs intra-cecal ingestible device delivery; assay type: in vivo, Yorkshire-Cross farm swine; settings: FIG. 92
Experimental: as §1
Animals in Group 1 received an ingestible device containing 0.8 mL of vehicle solution (80% alcohol, 20% HCO-60). Animals in Group 2 received orally […] liquid formulation of tacrolimus at 4 mg/0.8 mL per animal (Prograf: 5 mg/mL). Animals in Group 3 received intra-cecally an ingestible device containing tacrolimus at 1 mg in 0.8 mL per ingestible device. […]
Approximately 200˜400 mg of rectal content were collected, if available, with a fecal swab (Copan Diagnostics Nylon Flocked Dry Swabs, 502CS01). The fecal swab was pre-weighed and weighed after collection in the collection tube (Sterile Tube and Cap No Media, PFPM913S), and the sample weight was recorded. […]
For tissue necropsy, small intestine fluid and cecal fluid were collected separately from all the animals into two separate square plastic bottles, and stored at −20° C. The length and diameter of the cecum and the colon was measured from one animal in each group and recorded for reference. […] All samples were weighed, and the tissue sample weights were recorded. […] Around 3 grams of the total punched sample were collected into a pre-weighed 15-mL conical tube, and the tissue weight was recorded. […]

[3] = Example 13: tacrolimus blood pharmacokinetics, oral vs intra-cecal administration; assay type: in vivo, Yorkshire-Cross farm swine; settings: swine
From the text: as §2

[4] = tested on: IL-6, GM-CSF, IL-15, IL-2, IL-12, IL-13, TNF-α, and INF-γ; experiment: Tofacitinib pharmacodynamics: JAK/STAT pathway cytokines in plasma and colon tissue by ELISA in DSS-induced colitis mice; assay type: in vivo, male C57BL/6 mice
[5] = animals treated IC (Groups 5-6); FIG. 110
Experimental: Briefly, samples were analyzed by LC-MS/MS against matrix-matched standard curves.

[6] = C57BL/6, mouse, in vivo, po, 15 mg/kg
[7] = C57BL/6, mouse, in vivo, 10 mg/kg

## C=CC[C@@H]1/C=C(\C)C[C@H](C)C[C@H](OC)[C@H]2O[C@@](O)(C(=O)C(=O)N3CCCC[C@H]3C(=O)O[C@H](/C(C)=C/[C@@H]3CC[C@@H](O)[C@H](OC)C3)[C@H](C)[C@@H](O)CC1=O)[C@H](C)C[C@@H]2OC [tacrolimus]
[1]; Route IC, Dose 0.02 (mg · kg)
  Tmax: 1
[1]; Route IC, Dose 0.04 (mg · kg)
  Cmax: 9.197 ± 3.30 ng/mL
[1]; Route PO, Dose 0.09 (mg · kg)
  AUC 0-12 hr: 16.83 ± 3.641 ng·h/mL
  Tmax: 1
[2]; IC capsule groups
  rectal content concentration at 12 hours post-treatment: higher rectal content concentration
[2]; PO group
  rectal content concentration at 12 hours post-treatment: no detectable level
[3]; IC 0.02 mg/kg (Group 3)
  Trough (12 hr): 0.746 ng/mL
[3]; IC 0.04 mg/kg
  Cmax: 9.197 ± 3.30 ng/mL
[3]; IC 0.04 mg/kg (Group 4)
  Trough (12 hr): 1.96 ng/mL
[3]; IC 0.09 mg/kg (Group 5)
  Trough (12 hr): 4.35 ng/mL
[3]; PO 0.09 mg/kg
  Cmax: 3.53 ± 3.84 ng/mL
[3]; PO 0.09 mg/kg (Group 2), 0.09 mg/kg
  Trough (12 hr): 0.568 ng/mL

## C[C@@H]1CCN(C(=O)CC#N)C[C@@H]1N(C)c1ncnc2[nH]ccc12.O=C(O)CC(O)(CC(=O)O)C(=O)O [tofacitinib citrate]
[4]; PO or IC administration, 1 h and 3 h post-treatment (data not shown)
  IL-6 expression in plasma: inhibition of IL-6 expression was observed
[4]; all IC treated groups and the high dose PO group (45 mg/kg), FIG. 112B
  IL-6 expression in colon tissue: inhibition of IL-6 expression was sustained through 24 h post-dose
[4]; low dose PO group (15 mg/kg) by 12 h post-dose
  IL-6 expression in colon tissue: Recovery from IL-6 inhibition was observed
[5]
  blood exposure: limited blood exposure

## C[C@@H]1CCN(C(=O)CC#N)C[C@@H]1N(C)c1ncnc2[nH]ccc12 [tofacitinib, 3-[(3R,4R)-4-methyl-3-[methyl(7H-pyrrolo[2,3-d]pyrimidin-4-yl)amino]piperidin-1-yl]-3-oxopropanenitrile]
[4]; IC vs PO treatment groups (data not shown)
  GM-CSF levels in plasma or colon tissue: nor was there a significant difference in GM-CSF levels
[6]
  T1/2: 2.53 h
[7]
  T1/2: 2.16 h
